According to paper PMC5071874, “Universal stress protein Rv2624c alters abundance of arginine and enhances intracellular survival by ATP binding in mycobacteria” (Scientific Reports, 2016):

Biological target: Rv2624c (Mycobacterium tuberculosis, UniProt P9WFD5)
Sequence (P9WFD5 whole entry): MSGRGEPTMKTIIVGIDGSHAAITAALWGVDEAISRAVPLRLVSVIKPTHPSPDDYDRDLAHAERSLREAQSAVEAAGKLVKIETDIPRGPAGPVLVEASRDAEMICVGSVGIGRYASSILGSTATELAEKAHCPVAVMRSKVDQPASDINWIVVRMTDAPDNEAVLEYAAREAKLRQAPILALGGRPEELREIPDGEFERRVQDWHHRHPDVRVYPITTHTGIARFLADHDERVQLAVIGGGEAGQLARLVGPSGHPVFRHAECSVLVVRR

| Structure (SMILES) | HPLC of nucleotides extracted by boiling purified protein |
| --- | --- |
| Nc1ncnc2c1ncn2[C@@H]1O[C@H](COP(=O)(O)OP(=O)(O)O)[C@@H](O)[C@H]1O [ADP] | purified Rv2624c proteins from E. coli bound tightly to ATP and ADP after extensive purification steps |
| Nc1ncnc2c1ncn2[C@@H]1O[C@H](COP(=O)(O)OP(=O)(O)OP(=O)(O)O)[C@@H](O)[C@H]1O [ATP] | purified Rv2624c proteins from E. coli bound tightly to ATP and ADP after extensive purification steps |
